Reference: patent US9234006B2, “Compounds” (Novacta Biosystems Limited, priority 2011, dated 2016)
Structures can show the parent of a compound that is named as a salt. Where a SMILES comes first, the peptide text is derived from it. Bridges are numbered along the chain shown (N, C = ends). [ ]: non-standard residue; d: D form. The star is where a group is joined. ξ: configuration not given here. ξHexahydromandeloyl = O=C(C(O)C1CCCCC1)*; Thr(3ξ) = CC(O)[C@H](N)C(=O)O; X5 = CC(C)[C@H](N)CCC(=O)*; Octanoyl = CCCCCCCC(=O)*; Dab = NCC[C@H](N)C(=O)O; X1 = CCCCCCC(O)C(=O)*; X4 = CN(C)CCCC(=O)*; X6 = O=C(CCCCCCCO)*; Ahx = NCCCCCC(=O)O; X3 = O=C(C1CCNC1)*; GABA = NCCCC(=O)O

Columns and labels:
Experiment in all cases: MIC susceptibility testing, broth microdilution in CaMHB
[1] = system: K. pneumoniae ATCCBAA-1706; type: cell-based, Klebsiella pneumoniae
Protocol: (§1) To evaluate the potency and spectrum of the compounds, susceptibility testing was performed against four strains of each of the four Gram negative pathogens, Escherichia coli, Pseudomonas aeruginosa, Klebsiella pneumoniae and Acinetobacter baumannii.
(§2) The day before testing, 3 to 4 colonies were picked from fresh Mueller-Hinton Agar (MHA) plate and transferred into 10 mL of Cation adjusted MHB (CaMHB). Cultures were incubated at 37° C. 250 rpm for 18-20 hours before being diluted 100-fold in fresh CaMHB. The subcultures were grown further until the OD600 reached 0.2-0.3 corresponding to […]. The actively growing cultures were diluted 100-fold in fresh medium and used for the inoculum.
(§3) The assays were performed in duplicate.
(§4) Data was obtained under similar conditions to Table 4 except that different batches of cation-adjusted Muller-Hinton broth were used. The MIC values for these compounds are compared with those values obtained for Polymyxin B, Colistin Sulphate, CB-182,804 and NAB739 (as the TFA salt). CB-182,804 is a polymyxin decapeptide derivative with an aryl urea substituent at the N-terminus, which has been claimed to have lower toxicity than Polymyxin B (compound 5 in WO 2010/075416. See page 37). NAB739 has been described previously by Vaara et al.

[2] = system: K. pneumoniae ATCC 4352; type: cell-based, Klebsiella pneumoniae
Protocol: as §1, §2, §3, §4

[3] = system: K. pneumoniae NCTC7427; type: cell-based, Klebsiella pneumoniae
Protocol: as §1, §2, §3, §4

[4] = system: K. pneumoniae NCTC8172; type: cell-based, Klebsiella pneumoniae
Protocol: as §1, §2, §3, §4

[5] = system: A. baumannii ATCCBAA-747; type: cell-based, Acinetobacter baumannii
Protocol: as §1, §2, §3, §4

[6] = system: A. baumannii NCTC13423; type: cell-based, Acinetobacter baumannii
Protocol: as §1, §2, §3, §4

[7] = system: A. baumannii ATCC19606; type: cell-based, Acinetobacter baumannii
Protocol: as §1, §2, §3, §4

[8] = system: A. baumannii NCTC7844; type: cell-based, Acinetobacter baumannii
Protocol: as §1, §2, §3, §4

[9] = system: E. coli NCTC12900; type: cell-based, Escherichia coli
Protocol: as §1, §2, §3, §4

[10] = system: E. coli ATCC25922; type: cell-based, Escherichia coli
Protocol: as §1, §2, §3, §4

[11] = system: E. coli ATCC700928; type: cell-based, Escherichia coli
Protocol: as §1, §2, §3, §4

[12] = system: P. aeruginosa ATCC27853; type: cell-based, Pseudomonas aeruginosa
Protocol: as §1, §2, §3, §4

[13] = system: P. aeruginosa ATCCCRM-9027; type: cell-based, Pseudomonas aeruginosa
Protocol: as §1, §2, §3, §4

[14] = system: P. aeruginosa ATCC10145; type: cell-based, Pseudomonas aeruginosa
Protocol: as §1, §2, §3, §4

[15] = system: E. coli NCTC9001; type: cell-based, Escherichia coli
Protocol: as §1, §2, §3, §4

[16] = system: P. aeruginosa ATCC 9721; type: cell-based, Pseudomonas aeruginosa
Protocol: as §1, §2, §3, §4

[17] = Table 4A, different batches of cation-adjusted Muller-Hinton broth
[18] = K. pneumoniae ATCC4352, Table 4A, different batches of cation-adjusted Muller-Hinton broth
[19] = P. aeruginosa AATCCRM 9027, Table 4A, different batches of cation-adjusted Muller-Hinton broth
[20] = P. aeruginosa ATCCCRM-9027, Table 4
[21] = P. aeruginosa ATCC9721, Table 4A, different batches of cation-adjusted Muller-Hinton broth
[22] = K. pneumoniae ATCC 4352, Table 4

| SMILES | MIC [2, 18] [micrograms/mL] | MIC [3, 17] [micrograms/mL] | MIC [4, 17] [micrograms/mL] | MIC [5, 17] [micrograms/mL] | MIC [6, 17] [micrograms/mL] | MIC [7, 17] [micrograms/mL] | MIC [8, 17] [micrograms/mL] | MIC [10, 17] [micrograms/mL] | MIC [12, 17] [micrograms/mL] | MIC [13, 19] [micrograms/mL] | MIC [14, 17] [micrograms/mL] | MIC ([3]; Table 4) [micrograms/mL] | MIC ([8]; Table 4) [micrograms/mL] | MIC ([10]; Table 4) [micrograms/mL] | MIC ([12]; Table 4) [micrograms/mL] | MIC [13, 20] [micrograms/mL] | also measured |
| --- | --- | --- | --- | --- | --- | --- | --- | --- | --- | --- | --- | --- | --- | --- | --- | --- | --- |
| CC(C)C[C@@H]1NC(=O)[C@@H](Cc2ccccc2)NC(=O)[C@H](CCN)NC(=O)[C@@H](NC(=O)[C@H](CCN)NC(=O)[C@@H](NC(=O)CCCN(C)C)C(C)O)CCNC(=O)[C@H](C(C)O)NC(=O)[C@H](CCN)NC(=O)[C@H](CCN)NC1=O (stereo partly shown) [Example 18, 4-(N,N-dimethylamino)-butanoyl polymyxin B nonapeptide] (X4-[Thr(3ξ)][Dab][Dab][Dab][dF]L[Dab][Dab][Thr(3ξ)]; lactam 3-C) | 0.5 | 0.125 | >32 | 16 | 4 | 1 | 8 | 0.5 | 0.125 | 2 | 0.25 | – | – | – | – | – | MIC [1, 17]: 8 micrograms/mL; MIC [9, 17]: 4 micrograms/mL; MIC [11, 17]: 0.25 micrograms/mL |
| CC(C)C[C@@H]1NC(=O)[C@@H](Cc2ccccc2)NC(=O)[C@H](CCN)NC(=O)[C@@H](NC(=O)[C@H](CCN)NC(=O)[C@@H](NC(=O)CCCCCCCO)C(C)O)CCNC(=O)[C@H](C(C)O)NC(=O)[C@H](CCN)NC(=O)[C@H](CCN)NC1=O (stereo partly shown) [Example 8, 8-Hydroxyoctanoyl Polymyxin B Nonapeptide, Sulphate Salt] (X6-[Thr(3ξ)][Dab][Dab][Dab][dF]L[Dab][Dab][Thr(3ξ)]; lactam 3-C) | – | – | – | – | – | – | – | – | – | – | – | 1 | 16 | 2 | 0.5 | 0.25 | MIC ([15]; Table 4): 2 micrograms/mL; MIC ([11]; Table 4): 0.5 micrograms/mL; MIC ([14]; Table 4): 2 micrograms/mL |
| CC(C)C[C@@H]1NC(=O)[C@@H](Cc2ccccc2)NC(=O)[C@H](CCN)NC(=O)[C@@H](NC(=O)[C@H](CCN)NC(=O)[C@@H](NC(=O)C(O)C2CCCCC2)C(C)O)CCNC(=O)[C@H](C(C)O)NC(=O)[C@H](CCN)NC(=O)[C@H](CCN)NC1=O (stereo partly drawn) [Example 34, 2-(R,S)-(2-Hydroxy-2-cyclohexyl) ethanoyl polymyxin B nonapeptide] (ξHexahydromandeloyl-[Thr(3ξ)][Dab][Dab][Dab][dF]L[Dab][Dab][Thr(3ξ)]; lactam 3-C) | 1 | 0.5 | >32 | 1 | 0.25 | 1 | 2 | 0.5 | 0.125 | 0.5 | 0.5 | – | – | – | – | – | MIC [9, 17]: 8 micrograms/mL; MIC [15, 17]: 8 micrograms/mL; MIC [16, 21]: 0.25 micrograms/mL |
| CCCCCCC(O)C(=O)N[C@H](C(=O)N[C@@H](CCN)C(=O)N[C@H]1CCNC(=O)[C@H](C(C)O)NC(=O)[C@H](CCN)NC(=O)[C@H](CCN)NC(=O)[C@H](CC(C)C)NC(=O)[C@@H](CC(C)C)NC(=O)[C@H](CCN)NC1=O)C(C)O (stereo partly drawn) [Example 26, 2-(R,S)-2-Hydroxyoctanoyl polymyxin E nonapeptide] (X1-[Thr(3ξ)][Dab][Dab][Dab][dL]L[Dab][Dab][Thr(3ξ)]; lactam 3-C) | 8 | – | – | – | – | 16 | – | 8 | 4 | – | – | – | – | – | – | – | – |
| CC(C)C[C@@H]1NC(=O)[C@@H](Cc2ccccc2)NC(=O)[C@H](CCN)NC(=O)[C@@H](NC(=O)[C@H](CCN)NC(=O)[C@@H](NC(=O)CCCCCN)C(C)O)CCNC(=O)[C@H](C(C)O)NC(=O)[C@H](CCN)NC(=O)[C@H](CCN)NC1=O (stereo partly shown) [Example 7, 6-Aminohexanoyl Polymyxin B Nonapeptide, Sulphate Salt] (H-[Ahx][Thr(3ξ)][Dab][Dab][Dab][dF]L[Dab][Dab][Thr(3ξ)]; lactam 4-C) | – | – | – | – | – | – | – | – | – | – | – | 0.25 | 16 | 2 | 0.5 | 0.25 | MIC ([1]; Table 4): 0.06 micrograms/mL; MIC [2, 22]: 0.5 micrograms/mL; MIC ([4]; Table 4): >32 micrograms/mL; MIC ([5]; Table 4): 8 micrograms/mL; MIC ([6]; Table 4): 0.5 micrograms/mL; MIC ([9]; Table 4): 4 micrograms/mL; MIC ([15]; Table 4): 8 micrograms/mL |
| CCCCCCCC(=O)N[C@H](C(=O)N[C@H](CO)C(=O)N[C@H]1CCNC(=O)[C@H]([C@@H](C)O)NC(=O)[C@H](CCN)NC(=O)[C@H](CCN)NC(=O)[C@H](CC(C)C)NC(=O)[C@@H](Cc2ccccc2)NC(=O)[C@H](CCN)NC1=O)[C@@H](C)O [NAB739, reference compound] (Octanoyl-T[dS][Dab][Dab][dF]L[Dab][Dab]T; lactam 3-C; N-terminus assumed) | 2 | – | – | – | – | 1 | – | 2 | 1 | – | – | – | – | – | – | – | – |
| CC(C)C[C@@H]1NC(=O)[C@@H](Cc2ccccc2)NC(=O)[C@H](CCN)NC(=O)[C@@H](NC(=O)[C@H](CCN)NC(=O)[C@@H](NC(=O)CC[C@@H](N)C(C)C)C(C)O)CCNC(=O)[C@H](C(C)O)NC(=O)[C@H](CCN)NC(=O)[C@H](CCN)NC1=O (stereo partly drawn) [Example 29, 4-(R)-Amino-5-methylhexanoyl polymyxin B nonapeptide] (X5-[Thr(3ξ)][Dab][Dab][Dab][dF]L[Dab][Dab][Thr(3ξ)]; lactam 3-C) | 0.5 | 0.5 | >32 | 1 | 0.5 | 2 | 2 | 8 | 0.125 | 0.5 | 0.5 | – | – | – | – | – | MIC [11, 17]: 2 micrograms/mL; MIC [16, 21]: 0.25 micrograms/mL |
| CC(C)C[C@@H]1NC(=O)[C@@H](CC(C)C)NC(=O)[C@H](CCN)NC(=O)[C@@H](NC(=O)[C@H](CCN)NC(=O)[C@@H](NC(=O)CCCN)C(C)O)CCNC(=O)[C@H](C(C)O)NC(=O)[C@H](CCN)NC(=O)[C@H](CCN)NC1=O (stereo partly drawn) [Example 25, 4-aminobutanoyl polymyxin E nonapeptide] (H-[GABA][Thr(3ξ)][Dab][Dab][Dab][dL]L[Dab][Dab][Thr(3ξ)]; lactam 4-C) | 4 | – | – | – | – | 16 | – | 8 | 4 | – | – | – | – | – | – | – | – |
| CC(C)C[C@@H]1NC(=O)[C@@H](Cc2ccccc2)NC(=O)[C@H](CCN)NC(=O)[C@@H](NC(=O)[C@H](CCN)NC(=O)[C@@H](NC(=O)C2CCNC2)C(C)O)CCNC(=O)[C@H](C(C)O)NC(=O)[C@H](CCN)NC(=O)[C@H](CCN)NC1=O (stereo partly drawn) [Example 13, [3-(R,S)-Pyrrolidine-3-carbonyl] Polymyxin B Nonapeptide, Sulphate Salt] (X3-[Thr(3ξ)][Dab][Dab][Dab][dF]L[Dab][Dab][Thr(3ξ)]; lactam 3-C) | – | – | – | – | – | – | – | – | – | – | – | 0.25 | 4 | 0.5 | 0.25 | 2 | MIC ([1]; Table 4): 1 micrograms/mL; MIC [2, 22]: 0.5 micrograms/mL; MIC ([4]; Table 4): 4 micrograms/mL; MIC ([5]; Table 4): 4 micrograms/mL; MIC ([6]; Table 4): 2 micrograms/mL; MIC ([7]; Table 4): 0.5 micrograms/mL; MIC ([9]; Table 4): 2 micrograms/mL; MIC ([11]; Table 4): 0.25 micrograms/mL; MIC ([14]; Table 4): 0.5 micrograms/mL; MIC ([16]; P. aeruginosa ATCC 9721, Table 4): 0.125 micrograms/mL |
